For the assay, the system named is p53-negative cells (TOV21G-shp53, A549-shp53, MCF7-shp53, U2OS-shp53, dominant negative U2OS-mtp53). The assay is described as follows: Cell viability by MTT assay after RSK1 siRNA lipofection, p53-negative cells. As to conditions: p53-negative cells with siRNA of RSK1, 96 hours. It is filed as cell-based. The procedure:
First, as p53-positive cells, prepared were TOV21G, A549, MCF7 and U2OS cells. As p53-negative cells, prepared were TOV21G-shp53, A549-shp53, MCF7-shp53 and U2OS-shp53 by introducing shRNA of p53 into the above-mentioned four types of cells. Further, dominant negative U2OS-mtp53 cells were also prepared by introducing V157Fp53 into U2OS cells.
Next, siRNA of RSK1 was introduced into the above cells according to a lipofection method, and the cells were incubated in a 10% FCS-containing D-MEM medium (10% FCS-containing MacCoy's 5A medium for U2OS cells) in the presence or absence of cisplatin (CDDP) for 96 hours, and then their viability was measured through MTT assay. As the siRNA of RSK1, used was a mixture of the following three sequences.

In the case of `N.N.[Cl][Pt][Cl]` [cisplatin], the “effect of cisplatin under RSK1 expression inhibition” value is given as “enhanced”.

For the origin of these results see patent US20100151050A1, “Method for evaluation of compound using RSK1” (priority 2005, published 2010).
